Experimental data taken from patent US4672068A, “Antihypertensive 1,4-dihydropyridines having a conjugated ester” (Fujirebio Kabushiki Kaisha, priority 1984, dated 1987).

Test system: Male spontaneously hypertensive rats (SHR), arterial blood pressure
Experiment: Depressor response after intravenous administration (30 μg/kg), Table 1
Format: in vivo, rat
Details: for Duration: '90<' means greater than 90
Protocol: Male spontaneously hypertensive rats (SHR) which had mean arterial blood pressures higher than 140 mmHg were used for the experiments. Arterial blood pressure was measured through the catherized artery with a pressure transducer (MPU-0.5, manufactured by Nihon Kohden Kabushiki Kaisha). The catheter was inserted into the abdominal aorta via the median coccygcal artery of SHR under light ether anesthesia. The recordings were made on a rectigraph (manufactured by Sanei Sokki Kabushiki Kaisha). The 1,4-dihydropyridine derivatives prepared in the foregoing examples were administered with catheter which was inserted previously into the caudal vein or duodenum at least two hours after the operation. SHR were restrained with wire mesh cage immediately after the operation. Each derivative to be tested was dissolved in 1.5% PVP/ethanol, and then diluted with 0.9% saline or intravenous administration (30 μg/kg), or suspended in 5% gum arabic solution of intraduodenal administration (1 mg/kg).

SMILES	The time to reach the lowest BP [min]	ΔBP (Maximum depressor response) [mmHg]	Duration [min]	halflife (number in parentheses in Duration column) [min]
COC(=O)C1=C(C)NC(C)=C(C(=O)OCC(C)=Cc2ccccc2)C1c1cccc([N+](=O)[O-])c1 (centres unmarked) [Example 22, 2-methyl-3-phenyl-2-propenyl methyl 4-(3-nitrophenyl)-2,6-dimethyl-1,4-dihydropyridine-3,5-dicarboxylate]	1.8	50	120	–
COCCOC(=O)C1=C(C)NC(C)=C(C(=O)OCC=Cc2ccccc2)C1c1cccc([N+](=O)[O-])c1 (centres unmarked) [Example 13, Cinnamyl 2-methoxyethyl 4-(3-nitrophenyl)-2,6-dimethyl-1,4-dihydropyridine-3,5-dicarboxylate]	2.0	35	> 270	–
CC1=C(C(=O)OCC=Cc2ccccc2)C(c2cccc([N+](=O)[O-])c2)C(C(=O)OCC=Cc2ccccc2)=C(C)N1 (centres unmarked) [Example 45, Dicinnamyl 4-(3-nitrophenyl)-2,6-dimethyl-1,4-dihydropyridine-3,5-dicarboxylate]	27	32	> 90	–
CCOC(=O)C1=C(C)NC(C)=C(C(=O)OCC=CC=Cc2ccccc2)C1c1cccc([N+](=O)[O-])c1 (centres unmarked) [Example 60, ethyl 5-phenyl-2,4-pentadienyl 4-(3-nitrophenyl)-2,6-dimethyl-1,4-dihydropyridine-3,5-dicarboxylate]	4.0	60	> 90	–
CC=CC=CCOC(=O)C1=C(C)NC(C)=C(C(=O)OCC=CC)C1c1cccc([N+](=O)[O-])c1 (centres unmarked) [Example 78, 2-butenyl 2,4-hexadienyl 4-(3-nitrophenyl)-2,6-dimethyl-1,4-dihydropyridine-3,5-dicarboxylate]	2.4	23	–	–
CC=CC=CCOC(=O)C1=C(C)NC(C)=C(C(=O)OCCOC)C1c1cccc([N+](=O)[O-])c1 (centres unmarked) [Example 69, 2-methoxyethyl 2,4-hexadienyl 4-(3-nitrophenyl)-2,6-dimethyl-1,4-dihydropyridine-3,5-dicarboxylate]	1.0	60	> 90	–
CCOC(=O)C1=C(C)NC(C)=C(C(=O)OC(C)C=Cc2ccccc2)C1c1cccc([N+](=O)[O-])c1 (centres unmarked) [Example 31, 1-methyl-3-phenyl-2-propenyl ethyl 4-(3-nitrophenyl)-2,6-dimethyl-1,4-dihydropyridine-3,5-dicarboxylate]	40	73	> 170	–
COC(=O)C1=C(C)NC(C)=C(C(=O)OCCC=Cc2ccc([N+](=O)[O-])cc2)C1c1cccc([N+](=O)[O-])c1 (centres unmarked) [Example 21, 4(p-nitrophenyl)-3-butenyl methyl 4-(3-nitrophenyl)-2,6-dimethyl-1,4-dihydropyridine-3,5-dicarboxylate]	1.0	70	> 120	–
COC(=O)C1=C(C)NC(C)=C(C(=O)OCC=Cc2ccccc2)C1c1ccccc1F (centres unmarked) [Example 40, Cinnamyl methyl 4-(2-fluorophenyl)-2,6-dimethyl-1,4-dihydropyridine-3,5-dicarboxylate]	1.4	60	> 90	–
COC(=O)C1=C(C)NC(C)=C(C(=O)OCC=Cc2ccccc2)C1c1cccs1 (centres unmarked) [Example 65, Cinnamyl methyl 4-(2-thienyl)-2,6-dimethyl-1,4-dihydropyridine-3,5-dicarboxylate]	0.3	18	–	–
CC=CC=CCOC(=O)C1=C(C)NC(C)=C(C(=O)OC)C1c1cccc(C(F)(F)F)c1 (centres unmarked) [Example 72, methyl 2,4-hexadienyl 4-(3-trifluoromethylphenyl)-2,6-dimethyl-1,4-dihydropyridine-3,5-dicarboxylate]	1.5	63	> 120	–
COC(=O)C1=C(C)NC(C)=C(C(=O)OC(C=Cc2ccccc2)C(C)(C)C)C1c1cccc([N+](=O)[O-])c1 (centres unmarked) [Example 6, 1-tert-butyl-3-phenyl-2-propenyl methyl 4-(3-nitrophenyl)-2,6-dimethyl-1,4-dihydropyridine-3,5-dicarboxylate]	70	55	> 90	–
CCCC(C=Cc1ccccc1)OC(=O)C1=C(C)NC(C)=C(C(=O)OC)C1c1cccc([N+](=O)[O-])c1 (centres unmarked) [Example 10, 1-propyl-3-phenyl-2-propenyl methyl 4-(3-nitrophenyl)-2,6-dimethyl-1,4-dihydropyridine-3,5-dicarboxylate]	12.5	72	> 90	–
COC(=O)C1=C(C)NC(C)=C(C(=O)OCC=C(C)c2ccccc2)C1c1cccc([N+](=O)[O-])c1 (centres unmarked) [Example 5, 3-phenyl-2-butenyl methyl 4-(3-nitrophenyl)-2,6-dimethyl-1,4-dihydropyridine-3,5-dicarboxylate]	1.0	44	65	–
CC=CC=CCOC(=O)C1=C(C)NC(C)=C(C(=O)OC2CCCCC2)C1c1cccc([N+](=O)[O-])c1 (centres unmarked) [Example 70, Cyclohexyl 2,4-hexadienyl 4-(3-nitrophenyl)-2,6-dimethyl-1,4-dihydropyridine-3,5-dicarboxylate]	7.0	65	> 90	–
CC=CC=CCOC(=O)C1=C(C)NC(C)=C(C(=O)OCCCC)C1c1cccc([N+](=O)[O-])c1 (centres unmarked) [Example 83, n-butyl 2,4-hexadienyl 4-(3-nitrophenyl)-2,6-dimethyl-1,4-dihydropyridine-3,5-dicarboxylate]	2.6	45	–	–
CC=CC=CCOC(=O)C1=C(C)NC(C)=C(C(=O)OCC)C1c1cccc([N+](=O)[O-])c1 (centres unmarked) [Example 67, Ethyl 2,4-hexadienyl 4-(3-nitrophenyl)-2,6-dimethyl-1,4-dihydropyridine-3,5-dicarboxylate]	1.0	72	> 90	37
COC(=O)C1=C(C)NC(C)=C(C(=O)OCC=C(c2ccccc2)c2ccccc2)C1c1cccc([N+](=O)[O-])c1 (centres unmarked) [Example 9, 3,3-diphenyl-2-propenyl methyl 4-(3-nitrophenyl)-2,6-dimethyl-1,4-dihydropyridine-3,5-dicarboxylate]	13	12	> 240	–
CC=CC=CCOC(=O)C1=C(C)NC(C)=C(C(=O)OCC2CC2)C1c1cccc([N+](=O)[O-])c1 (centres unmarked) [Example 85, Cyclopropylmethyl 2,4-hexadienyl 4-(3-nitrophenyl)-2,6-dimethyl-1,4-dihydropyridine-3,5-dicarboxylate]	2.6	35	–	–
COC(=O)C1=C(C)NC(C)=C(C(=O)OCC=CC=Cc2cccs2)C1c1cccc([N+](=O)[O-])c1 (centres unmarked) [Example 51, Methyl 5-(2-thienyl)-2,4-pentadienyl 4-(3-nitrophenyl)-2,6-dimethyl-1,4-dihydropyridine-3,5-dicarboxylate]	2.0	40	> 90	–
CC=CC=CCOC(=O)C1=C(C)NC(C)=C(C(=O)OCC=Cc2ccccc2)C1c1cccc([N+](=O)[O-])c1 (centres unmarked) [Example 71, Cinnamyl 2,4-hexadienyl 4-(3-nitrophenyl)-2,6dimethyl-1,4-dihydropyridine-3,5-dicarboxylate]	10	42	> 90	–
COC(=O)C1=C(C)NC(C)=C(C(=O)OC/C=C/C=C\c2ccccc2)C1c1cccc([N+](=O)[O-])c1 (centres unmarked) [Example 58, Methyl (2E,4Z)-5-phenyl-2,4-pentadienyl 4-(3-nitrophenyl)-2,6-dimethyl-1,4-dihydropyridine-3,5-dicarboxylate]	1.9	64	–	–
CCC(C=Cc1ccccc1)OC(=O)C1=C(C)NC(C)=C(C(=O)OC)C1c1cccc([N+](=O)[O-])c1 (centres unmarked) [Example 25, 1-ethyl-3-phenyl-2-propenyl methyl 4-(3-nitrophenyl)-2,6-dimethyl-1,4-dihydropyridine-3,5-dicarboxylate]	10	71	> 240	–
